Reference: patent US12441763B2, “Hangtaimycin derivatives and their preparation methods and application” (WUHAN UNIVERSITY, priority 2022, dated 2025)
Numbered stars: 1 amine (or outer) side, 2 acyl side, 3 side chain; on linkers, the order of the positions; unused ones are H or OH. Square brackets hold non-standard residues; d marks the D form. Peptide text beside a SMILES is read from it. * marks the point of attachment. X3 = O=C1C=C(CCC/C=C/C=C/C(=O)[*:2])CC(C(O)N[*:1])O1; X4 = O=C1C=C(CCC/C=C/C=C/C(=O)[*:2])CC(CN[*:1])O1; NMeW = CN[CH](Cc1c[nH]c2ccccc12)C(=O)O; X2 = C/C(=C\C(C)N[*:1])C(=O)[*:2]; Dhb = C/C=C(\N)C(=O)O; X1 = C/C=C/C=C\C(=O)*; Dha = C=C(N)C(=O)O

How the values were obtained:
breast cancer = test: Antitumor activity, MTT cell viability, breast cancer; type: cell-based; conditions: 50 μg/mL, 24 hours
Procedure: (§1) In a 96-well microplate, 100 μL of culture medium was put in each well and inoculate four cell strains with a fusion degree of 80% at a density of 8×10^3 cells. Cells were grown at 37° C., CO2 (5%) and air (95%). Each 96-well plate was placed with a concentration gradient of 0˜100 μg/mL of test compounds HTM, HTMA, HTMB, and HTMP. After 24 hours of incubation, the medium was removed, and 0.5 mg/mL MTT solution was added to each medium with cells and continue to incubate the cells for 4 hours at 37° C. Then 100 μL of DMSO was added to dissolve formazan crystals. Finally, absorbance was measured at 570 nm using a microplate reader (Bioteck EON, USA). The viability of the cells was calculated as the percentage of cell viability compared to vehicle control-treated cells, which were arbitrarily assigned as 100% viability. Each independent experiment was repeated five times. (*P<0.05, **P<0.01, ***P<0.001)

[1] = tested on: cocaine reward memory reconsolidation; test: Drug reward memory reconsolidation, cocaine; type: in vivo, SD rats; conditions: 3 mg/kg i.p. after exposure to drug-paired box; group IV vs group III; 7th day after reward memory activation; P<0.05
Procedure: (§2) Drug reward memory reconsolidation: Morphine, an opioid representative, and cocaine, a euphoric representative, were used to establish model addiction. On the first day, baseline was assessed by placing the rats in the center compartment of the CPP apparatus and allowing ad libitum access to all compartments for 15 minutes. And then, male SD rats were divided into the saline+morphine group, the HTMB (3 mg/kg)+morphine group, the saline+cocaine group, and the HTMB (3 mg/kg, i.p.)+cocaine group. The rats were exposed to CPP training from day 2 to 9. On the 10th day, the channel between the three boxes was opened, and the rats were allowed to move freely in the three boxes for 15 minutes for the CPP test. On the 11th day, the CPP expressing rats screened for CPP formation were divided into four groups: the group I (morphine+saline), the group II (morphine+3 mg/kg HTMB), the group III (cocaine+saline), and the group IV (cocaine+3 mg/kg HTMB). After exposure to drug-paired box for 10 minutes, groups I and III were injected with saline (1 ml/kg, i.p.), and the groups II and IV were injected with HTMB (3 mg/kg, i.p.). 24 hours after injection, we defined this as 1 day of activation of the reward memory. The CPP scores were measured on the 7th day after reward memory activation.

[2] = tested on: morphine reward memory reconsolidation; test: Drug reward memory reconsolidation, morphine; type: in vivo, SD rats; conditions: 3 mg/kg i.p. after exposure to drug-paired box; group II vs group I; 7th day after reward memory activation; P<0.05
Procedure: as §2

bladder cancer = test: Antitumor activity, MTT cell viability, bladder cancer; type: cell-based; conditions: 50 μg/mL, 24 hours, P<0.01
Procedure: as §1

[3] = Antioxidant activity, DPPH free radical scavenging; type: biochemical; conditions: 1~50 μg/mL, 0.1 mM DPPH, absorbance at 517 nm
Procedure: In this experiment, a 0.1 mM DPPH solution was prepared with ethanol, and each sample solution/dispersion was separately mixed with the DPPH solution in order to dilute it into a reaction product with a concentration gradient of 1˜50 μg/mL to evaluate the concentration-dependent antioxidant potential. The reaction product was measured for its absorbance (AS) at 517 nm using an ultraviolet-visible spectrophotometer, and its antioxidant activity was measured using DPPH removal as an indicator. The percentage of DPPH free radical scavenging is calculated by the following formula: […]
AS is the absorbance of the sample and A0 is the absorbance of the control (only DPPH solution).

renal cancer = test: Antitumor activity, MTT cell viability, renal cancer; type: cell-based; conditions: […], 24 hours, P<0.01
Procedure: as §1

[4] = tested on: carrageenan-induced paw inflammation; test: Anti-inflammatory effect in inflammatory model induced by carrageenan (paw); type: in vivo, Kunming mice; conditions: 10 mg/mL; for right hind foot thickness: 10 μL subcutaneous into right hind paw, 4 hours after carrageenan injection, vs carrageenan+solvent group
Procedure: Male Kunming mice weighing 18˜22 g were adaptively reared for 1 day, and then randomly divided into […] (5˜6 mice per group): the saline+solvent group, the saline+HTM group, the saline+HTMP group, the saline+HTMA group, the saline+HTMB group, the saline+rapamycin (250 nM) group, the carrageenan+solvent group, the carrageenan+HTM group, the carrageenan+HTMP group, the carrageenan+HTMA group, the carrageenan+HTMB group, and the carrageenan+rapamycin (250 nM) group. Where doses used for HTM, HTMP, HTMA, and HTMB were set at 1, 3, and 10 mg/mL, and their solutions all contained 5% DMSO. Experiments were designed based on previous studies (Zhang et al., 2018). Carrageenan was used to induce paw inflammation, and the experimental procedure was as follows:
(1) The thickness of the right hind foot of mice was measured with a vernier caliper before the experiment, and the measurement site was marked.
(2) The experimental group was then subcutaneously injected into the right hind paw with 10 μL of different concentrations of compound solutions. The control group was injected with 10 μL saline into the right hind paw.
(3) After administration, the carrageenan group was injected subcutaneously with 30 μL of 1% carrageenan solution into the right hind paw, and the other groups were injected with an equal volume of saline. The thickness of the right hind foot of each mouse was measured at the same site every 1 hour for the following 4 hours to observe the effect of the compounds on the change in foot thickness.

HepG2 cells [5] = test: Protection of the cell membrane of HepG2 after CCl4 injury (DiO/DAPI confocal imaging); type: cell-based; conditions: HTMA pre-treatment 12 hours, then 70% CCl4 injury fluid 1 hour; vs model group
Procedure: Well-growing HepG2 cells were plated into confocal dishes with 1 mL of cell suspension containing 5×10^5 cells per dish. After 24 hours of incubation, pre-treat the cells with HTMA for 12 hours. The culture medium was removed from the confocal dish, then phenol red-free DMEM medium was added to the control group, 70% CCl4 injury fluid was added to the model and treatment groups. The dishes were placed in a 37° C. incubator for 1 hour to induce liver injury. After modeling, the culture medium was removed, the cells were rinsed with PBS, and fixed with 4% paraformaldehyde at room temperature for 10 minutes. Then the cells were rinsed with PBS three times, each time for 5 minutes. 10 μM DiO was added to the dish and stained the cells at room temperature for 30 minutes. Then the cells were rinsed with PBS three times, each time for 5 minutes. DAPI was dropped to counterstain the cell nucleus, incubating it in the dark for 30 minutes, and then the cells were rinsed with PBS three times. The images of the cells were captured using a laser scanning confocal microscope (Leica TCS SP8). The experimental design includes two positive controls: silymarin(S) and obeticholic acid (OBC).

[6] = tested on: alpha-naphthyl isothiocyanate-induced liver injury; test: Animal assay for hepatoprotective activity, alpha-naphthyl isothiocyanate-induced liver injury; type: in vivo, Wistar rats
Procedure: Male Wistar rats weighing around 220 g were randomly divided into 7 groups with 12 rats in each group. After grouping, they were fed a standard diet under standard conditions and were orally gavaged continuously. The dosages of the positive control groups obeticholic acid and silymarin were 10 mg/kg and 5 mg/kg respectively. The HTMA group was divided into low, medium, and high-dose groups with doses of 2.5, 5, and 10 mg/kg. The control and model groups were orally gavaged with 0.5% sodium carboxymethyl cellulose (solvent) daily. After 7 days of gavage, the rats fasted for 12 hours. On the 8th day, their weight was measured, and all rats except for the control group were intraperitoneally injected with alpha-naphthyl isothiocyanate (50 mg/kg, dissolved in olive oil) to induce liver injury. The rats in the control group were intraperitoneally injected with the same amount of olive oil. After two more days of gavage and 12 hours of fasting, blood samples were taken to detect biochemical indicators reflecting the degree of liver cell damage (FIGS. 27A˜27C) and bile stasis (FIGS. 28A˜28E), and liver immunohistochemical detection was performed (FIGS. 29A, 29B and 30A˜30F).

HepG2 cells [7] = test: Cellular assay for hepatoprotective activity, CCl4-induced liver injury cell model; type: cell-based; conditions: compared with the CCl4 group; HepG2 cell homogenates
Procedure: HepG2 cells were seeded into 24-well plates and kept at 37° C. in 5% CO2 in order to achieve 80% fusion. To evaluate the effects of HTMA, HTMB, and HTMP on aspartate aminotransferase (AST) and alanine aminotransferase (ALT) activity, and compare the results with those of Silymarin (positive control) (FIG. 26), a cellular assay for hepatoprotective activity was carried out using a CCl4-induced liver injury cell model. The cells were treated with the compounds followed by ultrasound disruption and cell homogenization to prepare the cell homogenates for analysis.

[8] = tested on: acute inflammatory visceral pain caused by acetic acid; test: Writhing test (acetic acid); type: in vivo, Balb/c mice; conditions: 30 minutes before 0.6% acetic acid i.p., counted within 20 minutes, vs solvent group, P<0.05
Procedure: The writhing test: Male Balb/c mice weighting 18˜22 g were randomly divided into four groups (9˜10 per group): the vehicle group (DMSO:saline=1:4, 1 ml/kg), the HTMB (1 mg/kg) group, the HTMB (3 mg/kg) group, and the HTMB (10 mg/kg) group. After tail vein administration for 30 minutes, mice were injected intraperitoneally with 10 mL/kg of freshly prepared 0.6% acetic acid (Rediet Tesfaye, et al. 2020), and the number of body twists of mice was observed and recorded within 20 minutes.

morphine-induced CPP = test: Conditioned place preference (CPP) experiments; type: in vivo, SD rats; conditions: HTMB 3 mg/kg + morphine vs saline + morphine; test on the 10th day; P<0.05
Procedure: Conditioned place preference (CPP) experiments: Morphine, an opioid representative, and cocaine, a euphoric representative, were used to establish a model of addiction. On the first day, the baseline was assessed by placing the rats in the center compartment of the CPP apparatus and allowing ad libitum access to all compartments for 15 minutes. And then, male SD rats were divided into the saline+morphine group, the HTMB (3 mg/kg)+morphine group, the saline+cocaine group, and the HTMB (3 mg/kg, i.p.)+cocaine group. The rats were exposed to CPP training from day 2 to 9. On the 10th day, the channel between the three boxes was opened, and the rats were allowed to move freely in the three boxes for 15 minutes for the CPP test.

[9] = high-dose HTMA (HH) 10 mg/kg, oral gavage, vs liver injury model group, blood

For C=C(NC(=O)/C=C\C=C\CCCC1=CC(=O)OC(C(O)NC(=O)C(C)=CC(C)NC(=O)/C=C\C=C\C)C1)C(=O)NC(C(=O)N1C(=O)[C@@H](Cc2c[nH]c3ccccc23)N(C)C(=O)/C1=C/C)C(C)OC (stereo partly shown) [HTM, Hangtaimycin], the “survival rate of breast cancer” value (breast cancer; P<0.05) was “significantly inhibited”, the “CPP scores, cocaine reward memory reconsolidation” value [1] was “inhibit” and the “CPP scores, morphine reward memory reconsolidation” value [2] was “inhibit”. The “survival rate of bladder cancer” value (bladder cancer) was “significantly inhibited”, the “antioxidant capacity (DPPH free radical scavenging)” value [3] was “have antioxidant capacity” and the “survival rate of renal cancer” value (renal cancer) was “significantly inhibited”.

In the case of C=C(NC(=O)/C=C/C=C/CCCC1=CC(=O)OC(C(O)NC(=O)/C(C)=C/C(C)NC(=O)/C=C\C=C\C)C1)C(=O)NC(C(=O)N/C(=C\C)C(=O)N(C)C(Cc1c[nH]c2ccccc12)C(=O)OC)C(C)OC (stereo not shown) [HTMA, Hangtaimycin A] (X1-[X2][X3][Dha]T(Me)[Dhb][NMeW]-OMe; configuration not given here), the “right hind foot thickness” value ([4]; P<0.05) is reported as “reduced”, the “cell membrane morphology (DiO fluorescence)” value (HepG2 cells [5]) is reported as “protective effect on the cell membrane” and the “survival rate of breast cancer” value (breast cancer; P<0.01) is reported as “significantly inhibited”. The “effects on other biochemical indicators relative to high-dose HTMA” value ([6]; 2.5 mg/kg oral gavage (HTMA low dose LH)) was “weaker”, the LDH levels ([6]; 2.5 mg/kg oral gavage (HTMA low dose LH), vs liver injury model group) was “significantly reduced” and the “effects on other biochemical indicators relative to high-dose HTMA” value ([6]; 5 mg/kg oral gavage (HTMA medium dose MH; silymarin)) was “weaker”. The LDH levels ([6]; 5 mg/kg oral gavage (HTMA medium dose MH; silymarin), vs liver injury model group) was “significantly reduced”, the “levels of LDH” value ([6]; 10 mg/kg oral gavage (HTMA high dose HH; obeticholic acid), vs liver injury model group) was “significantly reduce” and the “pathological conditions of liver tissue damage (liver tissue staining)” value ([6]; all doses of HTMA (2.5, 5, 10 mg/kg oral gavage), vs liver injury model group) was “therapeutic effect”. For the same compound, the “levels of ALP” value [6, 9] was “significantly reduce”, the “levels of ALT” value [6, 9] was “significantly reduce” and the “levels of AST” value [6, 9] was “significantly reduce”. For the same compound, the “levels of GGT” value [6, 9] was “significantly reduce”, the “levels of TBA” value [6, 9] was “significantly reduce” and the “levels of TBIL” value [6, 9] was “significantly reduce”. For the same compound, the ALT levels (HepG2 cells [7]) was “significantly reduced”, the AST levels (HepG2 cells [7]) was “significantly reduced” and the “survival rate of bladder cancer” value (bladder cancer) was “significantly inhibited”. The “antioxidant capacity (DPPH free radical scavenging)” value [3] was “does not”.

In the case of C=C(NC(=O)/C=C/C=C/CCCC1=CC(=O)OC(CNC(=O)/C(C)=C/C(C)NC(=O)/C=C\C=C\C)C1)C(=O)NC(C(=O)N/C(=C\C)C(=O)N(C)C(Cc1c[nH]c2ccccc12)C(=O)OC)C(C)OC (stereo not shown) [HTMB, Hangtaimycin B] (X1-[X2][X4][Dha]T(Me)[Dhb][NMeW]-OMe; configuration not given here), the “improvement of the inflammation caused by carrageenan, comparison among HTMP, HTMA and HTMB” value [4] is reported as “best results”, the “right hind foot thickness” value ([4]; P<0.05) is reported as “reduced” and the “number of leukocytes per unit area (HE staining)” value ([4]; carrageenan+HTMB group vs carrageenan+solvent group, P<0.05) is reported as “statistical difference”. The “number of body twists” value ([8]; 3 mg/kg tail vein) was “significantly lower”, the “number of body twists” value ([8]; 10 mg/kg tail vein) was “significantly lower” and the “survival rate of breast cancer” value (breast cancer; P<0.05) was “significantly inhibited”. For the same compound, the ALT levels (HepG2 cells [7]) was “significantly reduced”, the AST levels (HepG2 cells [7]) was “significantly reduced” and the “survival rate of bladder cancer” value (bladder cancer) was “significantly inhibited”. The “antioxidant capacity (DPPH free radical scavenging)” value [3] was “have antioxidant capacity”, the “CPP scores, morphine-induced CPP” value (morphine-induced CPP) was “inhibit” and the “survival rate of renal cancer” value (renal cancer) was “significantly inhibited”.
